The results in this text go back to patent publication US4778789A, “Piperazinecarboxamides having a phenoxyalkyl or thiophenoxyalkyl side chain” (priority 1985, dated 1988).

Where a name gives a salt, the structure may show the parent alone.

The test system of the experiment is isolation induced aggressive behaviour (male NMRI mice). Kind of experiment: Isolation induced aggressive behaviour test. The format is in vivo. The following applies: Mus musculus, sc, 0.5 hour after drug administration, read-out: ED50 (dose inhibiting aggressive behaviour among 50 percent of the pairs). The text has this: This type of aggression is interesting because it is known that this kind of emotional behaviour might be located in limbic structures in the brain (MacLean, P. D., Psychosom. Med. 11, 338 (1949)).
Every week male NMRI mice, weighing 20-22 g, were isolated in Makrolon cages for three weeks with diet and water ad libitum. A piece of cardboard was placed between the cages to prevent visual contact.
To test aggressiveness the mice were paired in a neutral area, a beaker (14 cm high and diameter 14 cm). A pair is considered aggressive if both the animals show clear signs of fighting within 5 minutes. This fighting is characterized by biting and vocalization. A soon as fighting is seen, the mice are separated and brought to their home cage (every second mouse is marked). […] Animals showing no aggression are discarded.
The test substance is administered s.c. (0.2-0.4 ml/20 g). The mice are paired 0.5 hour after the injection for trials of 5 minutes' duration.
The ED50 -value (mg/kg) reported is the dose inhibiting aggressive behaviour among 50 percent of the pairs 0.5 hour after drug administration.

Turning to `CCNC(=O)N1CCN(CCCOc2ccc(F)cc2)CC1` [1:3, 4-/3-(p-fluorophenoxy)proyl/-N-ethyl-1-piperazinecarboxamide hydrochloride], the ED50 turned out to be 5 mg/kg.
As for `CSc1ccc2c(c1)N(CCC1CCCCN1C)c1ccccc1S2` (centres unmarked) [Thioridazine], the figure is 5 mg/kg.
